Like-named read-outs stand apart in the source and are kept apart here.
Tests used:
malaria infection = settings: human volunteers, single dose of 600 milligrams; cited from earlier work
[1] = Hepatocyte intrinsic clearance, cryopreserved human hepatocytes; type: in vitro ADME; settings: cryopreserved human hepatocytes in suspension (pooled), 60 min
Experimental: The compounds of the invention (3 μM) were incubated in suspension with cryopreserved human (rat or mouse) hepatocytes pooled from multiple donors (>10) and samples taken at 6 time points over the course of a 60 min experiment and analysed by LC MS/MS. Williams E media supplemented with 2 mM L-glutamine and 25 mM HEPES and test compound (final substrate concentration 3 μM; final DMSO concentration 0.25%) were pre-incubated at 37° C. prior to the addition of a suspension of cryopreserved hepatocytes (final cell density 0.5×10^6 viable cells/mL in Williams E media supplemented with 2 mM L glutamine and 25 mM HEPES) to initiate the reaction. The final incubation volume is 500 μL. The reactions are stopped by transferring aliquots of incubate into acetonitrile at the appropriate time points, in a 1:2 ratio. The termination plates are centrifuged at 3,000 rpm for 20 min at 4° C. to precipitate the protein. Following protein precipitation, the sample supernatants were combined in cassettes of up to 4 compounds, internal standard was added and analysed by LC MS/MS. From a plot of ln peak area ratio (compound peak area/internal standard peak area) against time, the gradient of the line was determined. Subsequently, half-life (t½) and intrinsic clearance (CLint) were calculated using the equations below: Elimination rate constant (k)=(−gradient) Half-life (t½) (min)=0.693/k Intrinsic clearance (i.e. CLint) (μL/min/million cells)=V×0.693/t1/2
where V=Incubation volume (μL)/Number of cells
Verapamil and umbelliferone were included in the assay as controls and if the values for these compounds are not within the specified limits the results were rejected and the experiment repeated.

[2] = phase 1a clinical trials; cited from earlier work
[3] = Pharmacokinetic profile in dog (IV); settings: in vivo; for clearance: read-out: Cl (dog); for half-life: read-out: t½ (dog) (converted)
PfATP-4 = molecular target: T1, PfATP-4 (Plasmodium falciparum, UniProt A0A143ZZK9); assay: Effect on cytosolic [Na+] in saponin-isolated Plasmodium falciparum (sodium flux assay, SBFI); type: cell-based; settings: SBFI-loaded 3D7 parasites, compound at 1 μM
T1 construct: Saponin-isolated parasites at a density of 1.4-1.8×10^8 cells/mL; endogenous in cells
T1 sequence (A0A143ZZK9 whole entry): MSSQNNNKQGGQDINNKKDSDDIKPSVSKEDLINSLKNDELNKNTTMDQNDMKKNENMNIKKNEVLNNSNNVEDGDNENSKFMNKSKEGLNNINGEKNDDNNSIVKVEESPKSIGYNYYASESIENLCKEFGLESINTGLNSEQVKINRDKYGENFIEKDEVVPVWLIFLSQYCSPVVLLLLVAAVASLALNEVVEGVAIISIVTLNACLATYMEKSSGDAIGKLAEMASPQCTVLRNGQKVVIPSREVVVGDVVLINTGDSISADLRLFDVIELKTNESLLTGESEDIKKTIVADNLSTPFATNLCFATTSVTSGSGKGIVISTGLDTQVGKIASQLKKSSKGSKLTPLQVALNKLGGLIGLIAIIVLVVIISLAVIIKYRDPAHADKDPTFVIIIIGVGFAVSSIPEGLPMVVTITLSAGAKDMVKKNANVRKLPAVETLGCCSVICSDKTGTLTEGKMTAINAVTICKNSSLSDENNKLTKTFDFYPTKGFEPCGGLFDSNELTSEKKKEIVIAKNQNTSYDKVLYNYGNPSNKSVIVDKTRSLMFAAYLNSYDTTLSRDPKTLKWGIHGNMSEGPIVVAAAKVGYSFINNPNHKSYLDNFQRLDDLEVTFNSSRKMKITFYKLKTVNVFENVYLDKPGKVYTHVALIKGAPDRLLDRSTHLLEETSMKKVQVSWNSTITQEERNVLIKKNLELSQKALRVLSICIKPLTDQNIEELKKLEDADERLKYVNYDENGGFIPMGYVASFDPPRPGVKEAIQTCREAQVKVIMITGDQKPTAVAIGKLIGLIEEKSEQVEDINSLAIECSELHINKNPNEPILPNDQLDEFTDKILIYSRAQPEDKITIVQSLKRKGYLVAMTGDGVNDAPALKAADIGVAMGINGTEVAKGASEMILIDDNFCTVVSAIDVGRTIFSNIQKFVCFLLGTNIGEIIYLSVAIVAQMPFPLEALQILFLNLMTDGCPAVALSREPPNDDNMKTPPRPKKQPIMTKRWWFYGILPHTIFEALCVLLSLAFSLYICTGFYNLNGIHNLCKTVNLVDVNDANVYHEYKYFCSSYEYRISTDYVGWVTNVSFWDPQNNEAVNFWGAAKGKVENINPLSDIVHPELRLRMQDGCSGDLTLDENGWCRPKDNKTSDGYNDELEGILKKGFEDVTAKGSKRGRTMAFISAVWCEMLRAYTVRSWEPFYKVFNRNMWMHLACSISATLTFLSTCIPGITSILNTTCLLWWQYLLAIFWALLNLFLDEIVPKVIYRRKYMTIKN
From the text: The ability of compounds of the invention to function as inhibitors of the Na+/H+-ATPase, which regulates parasite cytosolic sodium concentration has been tested in the following assay. Their effect on cytosolic sodium can be measured using a sodium flux assay (Biochemical characterization and chemical inhibition of PfATP4-associated Na+-ATPase activity in Plasmodium falciparum membranes. Rosling J. E. O. et al., 2018, J. Biol. Chem., 293: 13397). Saponin-isolated parasites at a density of 1.4-1.8×10^8 cells/mL, were suspended in bicarbonate-free RPMI1640 supplemented with 20 mM D-glucose, 0.2 mM hypoxanthine, 25 mM HEPES and 25 mg/L gentamycin sulfate (pH 7.10), then treated with sodium-binding benzofuran isophthalate acetoxymethyl ester ([…]) and Pluronic F-127 (0.01% w/v) for 20 min at 37° C. The dye-loaded cells were washed twice (12,000 g, 0.5 min) in bicarbonate-free RPMI then incubated for a further 20 min at 37° C. to allow for complete de-esterification of the dye before being resuspended at a final cell concentration of 1.5-2.5×10^7 cells/mL in standard saline. […] [Na+] was determined according to reference to a calibration curve of the 340/380 nm fluorescence ratio as described previously (In situ calibration and [H+] sensitivity of the fluorescent Na+ indicator SBFI. Diarra A. et al., 2001, Am. J. Physiol. Cell Physiol., 280: 1623).

[4] = system: P. falciparum transgenic reporter strain NF54-HGL; assay: Standard membrane feeding assay (transmission blocking, oocysts in mosquito midgut); type: cell-based; settings: Plasmodium falciparum, NF54, read-out: IC50, transmission of P. falciparum from infected blood into mosquitos (number of oocysts in the mosquito midgut)
Experimental: Standard Membrane Feeding Assays (SMFA) were performed using P. falciparum transgenic reporter strain NF54-HGL that expresses a firefly luciferase gene from an hsp70 promoter (Vos et al., 2015, Scientific Reports, 5). Stage V gametocytes were pre-incubated with test compound prior to mosquito feeding. Test compound is dissolved in DMSO to achieve a stock solution of 10 mM that was serially diluted in DMSO to achieve concentrations […] above the final test concentration. Subsequently, 10 μl of diluted compound in DMSO is then added to 990 μl pre-warmed RPMI 1640 medium supplemented with 367 μM hypoxanthine, 25 mM HEPES and 25 mM NaHCO3 (‘incomplete medium’). 40 μl of this intermediate dilution is added to 360 μl of parasite culture and incubated for 48 hrs at 37° C. in Eppendorf tubes, resulting in 0.1% final DMSO concentration. Hereafter, 300 μl of the gametocyte culture/compound mix is added to 180 μl of packed red blood cells and centrifuged for 20 seconds at 10,000×g. […] Mosquitoes are processed for luminescence measurements to determine relative oocyst intensities as described previously (Stone et al., 2014, Journal of Infectious Diseases, 5, 16). Data is analyzed by fitting a four-parameter logistic regression model using maximum likelihood to find the best fit as described previously (Dechering et al., 2017, Scientific Reports, 7, 1) as shown under FIG. 5.

clearance ([3]; IV at dose 3 mg/kg) [mL/min/kg]	half-life ([3]; IV at dose 3 mg/kg) [h]	Compound	Parasitological cure (malaria infection)	hepatocyte CLint at 3 μM [1] [µL/min/1e6 cells]	Metabolite formation in human pharmacokinetic studies [2]	Effect on cytosolic [Na+] (PfATP-4)	clearance ([3]; IV at 1 mg/kg) [mL/min/kg]	half-life ([3]; IV at 1 mg/kg) [h]	IC50 [4] [nM]
3	10	N#Cc1cc(NC(=O)[C@H]2c3ccccc3C(=O)N(CC(F)(F)F)[C@@H]2c2cccnc2)ccc1F [(+) SJ-733, 4-Isoquinolinecarboxamide, N-(3-cyano-4-fluorophenyl)-1,2,3,4-tetrahydro-1-oxo-3-(3-pyridinyl)-2-(2,2,2-trifluoroethyl)-, (3S,4S)-, reference compound]	parasitological cure was not achieved	11.4	significant formation of an inactive N-oxide metabolite				
		N#Cc1cc(NC(=O)[C@H]2c3ccccc3C(=O)N(CC(F)(F)F)[C@@H]2c2ccc(OC3CC3)nc2)ccc1F (single isomer, unassigned) [(1a)]		< 3		increase of cytosolic sodium concentration	0.26	41	323
		N#Cc1cc(NC(=O)[C@H]2c3ccccc3C(=O)N(CC(F)(F)F)[C@@H]2c2cnc(C(F)(F)F)nc2)ccc1F [(9a), (3S,4S)—N-(3-cyano-4-fluorophenyl)-1-oxo-2-(2,2,2-trifluoroethyl)-3-(2-(trifluoromethyl)pyrimidin-5-yl)-1,2,3,4-tetrahydroisoquinoline-4-carboxamide]		< 3		increase of cytosolic sodium concentration			

Source: patent publication US12509439B2, “Anti-malarial agents” (UNIVERSITY OF KENTUCKY RESEARCH FOUNDATION, priority 2020, dated 2025)
